For one data set, the system named is urease. Nature of the data set: Soil-water suspension incubation, ammonium formed from urea (17 days). Type of data set: biochemical. Conditions: 72% inhibition at 50 μg/200 ml versus NBPT at 400 μg/200 ml. As to the method: The ammonium produced was measured as per Example 9.
For data set [1], the system named is fish, algae and invertebrates. The note with it: cited from earlier work.

SMILES strings stand for the structures.

Consider `NP(N)(=O)Nc1ccccc1[N+](=O)[O-]` [Example 2-NPT, 2-nitrophenyl phosphoric triamide], for which the “activity relative to NBPT” value in the data set with urease is reported as “about eight times more active than NBPT”. For the molecule `O=S1(=O)CCCC1` [tetramethylene sulfone], in data set [1], the LC50 entry was “greater than 1000 mg/l”.
